Values of other authors as cited in patent US20250031694A1, “AGRICULTURAL CHEMICAL COMPOSITION AND METHOD FOR PRODUCING SAME” (MITSUI CHEMICALS CROP & LIFE SOLUTIONS, INC., priority 2021, published 2025).
In brackets after ≈: the same amount, converted by molar mass.

Conditions: FAMIC agrochemical abstract

Row | SMILES | water solubility (25° C.) [µg/mL] | water solubility (20° C.) [µg/mL]
1 | CCCOCCN(C(=O)CCl)c1c(CC)cccc1CC [pretilachlor] | 74 (≈ 237 µM) | 
2 | C=CCOC1=NS(=O)(=O)c2ccccc21 [probenazole] |  | 36.6 (≈ 164 µM)
3 | CC(=O)Oc1c(C)c(C)nc2c(F)cc(C(C)(C)C)cc12 [tebufloquin] |  | 20.2 (≈ 69.8 µM)
4 | CN1COCN(Cc2cnc(Cl)s2)/C1=N\[N+](=O)[O-] [thiamethoxam] | 4100 (≈ 14100 µM) | 
